{"source": "patent US20090087417A1", "about": "“METHODS FOR PROMOTING DOPAMINERGIC NEURONAL DEVELOPMENT BY USING NG4A-SUBFAMILY AND WNT-LIGANDS” (priority 2002, published 2009)", "assay_type_in_all_cases": "cell-based, rat", "key": {"[1]": {"tested_on": "E13.5 primary cultures from the cerebral cortex", "test": "Induction of TH in Nurr1+ E13.5 cerebral cortex primary cultures", "settings": "Wnt ligands or co-culture with P1 astrocytes", "protocol": "(§1) Ventral mesencephala and cerebral cortices from embryos E13.5-14.5 obtained from timed-mated Sprague-Dawley rats were dissected, mechanically dissociated and plated at a final density of 1×10^5 cells/cm2 on poly-D-lysine coated 12- or 24-well plates in a defined, serum-free medium (N2, consisting of a 1:1 mixture of F12 and DMEM containing insulin (10 ng/ml), transferrin (100 μg/ml), putrescine (100 μM), progesterone (20 nM), selenium (30 nM), glucose (6 mg/ml), and bovine serum albumin (1 mg/ml)). Purified Type 1 astrocytes were obtained from mixed glial cultures derived from the VM or CTX of P1 rats according to a standard protocol (Wagner et al., 1999). After shaking and replating into 12-well plates, astrocytes were grown to confluency in 15% fetal bovine serum-containing media and changed to N2 medium, at which time freshly dissected VM or CTX cells were plated on top of the astrocytes at a density of 1×10^5 cells/cm2. All factors were added once, at the initiation of culture, with the exception of 5-bromodeoxyuridine (BrdU), which was added 4-6 hours prior to fixation. Cultures were maintained in a humidified 5% CO2, 95% air incubator at 37° C. and fixed after given time periods with 4% paraformaldehyde for 45 minutes prior to immunocytochemical analysis.\n(§2) Fixed cultures were incubated with one of the following antibodies, diluted appropriately in phosphate-buffered saline (PBS) containing 1% bovine serum albumin and 0.3% Triton-X 100: mouse anti-BrdU, 1:50 (DAKO, Denmark), mouse anti-β-tubulin, Type III (TuJ1), 1:250 (Sigma), mouse anti-TH, 1:1000 (Incstar, USA), rabbit anti-TH, 1:250 (PelFreeze); rabbit anti-Nurr1, 1:2000 (gift from Dr. T. Perlmann, Sweden), rabbit anti-Nurr1, 1:1000 (Santa Cruz, USA) or mouse anti-Nurr1, 1:250 (BD Transduction Laboratories, USA), rabbit anti Adh2 1:4000 (gift from Dr. R. Lindahl, South Carolina). Incubations were either carried out at 4° C. overnight, or at room temperature for 1 hour. Both processes yielded similar results. After washing, cultures were incubated for 1-3 hr with appropriate secondary antibodies (biotinylated 1:500; CY2-, FITC-, or rhodamine-coupled horse-anti-mouse IgG 1:100; or goat-anti-rabbit IgG 1:100; all from Vector, USA), in the same dilution buffer. Brightfield immunostaining was visualized with the Vector Laboratory ABC immunoperoxidase kit, using either NovaRed (red), or AEC (red), SG or 3-3′ dimaminobenzidine tetrahydrochloride (DAB 0.5 mg/ml)/nickel chloride (1.6 mg/ml) (gray/black), or VIP (violet) substrates. Double-staining was performed by sequential single staining as described. The order of staining was only critical for BrdU-double labeling, in which case the BrdU procedure was always performed second. […] Photos were acquired with a Zeiss Axioplan 100M microscope and collected with a Hamamatsu camera C4742-95 (with the QED imaging software).\nOnly clearly stained cells were counted as positive cells. Spheres were considered positive if they contained one or more positive cell. Quantitative immunocytochemical data on individual cells represent means and standard errors of counts obtained by a blinded observer from 10-20 non-overlapping fields (cells) or in the entire well (clusters), in each of 3-4 wells per condition from 3-4 independent experiments, unless stated otherwise. […]"}, "[2]": {"tested_on": "E14.5 ventral mesencephalic (VM) cultures", "test": "Proliferating clusters containing TH+ neurons in VM cultures", "settings": "10 units, 7 days in vitro", "protocol": "as §1, with “All factors were added once, at the initiation of culture, with the exception of 5-bromodeoxyuridine (BrdU), which was added 4-6 hours prior to fixation. Cultures were maintained in a humidified 5% CO2, 95% air incubator at 37° C. and fixed after given time periods with 4% paraformaldehyde for 45 minutes prior to immunocytochemical analysis.” left out\nOnly clearly stained cells were counted as positive cells. […] Quantitative immunocytochemical data on individual cells represent means and standard errors of counts obtained by a blinded observer from 10-20 non-overlapping fields (cells) or in the entire well (clusters), in each of 3-4 wells per condition from 3-4 independent experiments, unless stated otherwise. […]"}, "[3]": {"tested_on": "VM precursor cultures / Nurr1+ precursor cells", "test": "BrdU incorporation (proliferation) in VM precursor cultures", "protocol": "as §1, §2\n(§3) Only clearly stained cells were counted as positive cells. Spheres were considered positive if they contained one or more positive cell. Quantitative immunocytochemical data on individual cells represent means and standard errors of counts obtained by a blinded observer from 10-20 non-overlapping fields (cells) or in the entire well (clusters), in each of 3-4 wells per condition from 3-4 independent experiments, unless stated otherwise. For each variable, initial statistical comparisons were performed by a global ANOVA, with multiple factors of dose, time point, treatment and/or region; if significant interactions between treatment and any other variable existed, data were further divided into separate times, doses or regions. Fisher's protected least significant difference was used post hoc to identify specific points at which the treatments differed from controls (or each other) only when significant interactions between factor treatment and other variables occurred. Significance for all tests was assumed at the level of p<0.05. […]"}, "VM cultures": {"tested_on": "VM cultures", "test": "TuJ1+ neurons and proliferating clusters, proportion dopaminergic, in VM cultures", "protocol": "as §1, §2, §3"}, "[4]": {"tested_on": "E14.5 ventral mesencephalic precursor cultures", "test": "Number of TH+ neurons in E14.5 ventral mesencephalic precursor cultures", "settings": "increasing concentrations of partially purified Wnt, 3 days", "protocol": "as §1\nB1A fibroblast lines stably overexpressing hemagglutanin-tagged Wnt-1a, 3a, or 5a (Shimizu H., 1997) were grown in standard complete media (DMEM+10% FBS) supplemented with 100 ug/ml G-418. For collection of conditioned media, cells were replated at low density in complete media and allowed to reach 50-75% confluency, at which point cells were washed and media was replaced with serum-free N2 (with 10 μM sodium butyrate) for 24 hours. Conditioned media from sister flasks was then harvested, pooled as lots and stored at −80° C. for up to 2 months. When compared to fresh CM, no loss of activity was observed when using this collection and storage routine. T1A CM was harvested using a similar procedure, with the exception that media was collected after 3 days in vitro.\nFor concentration, individual lots of CM were thawed at room temperature, divided into 80 ml aliquots, loaded onto Centricon-Plus 80 columns (Millipore) and concentrated via centrifugation according to the manufacturers instructions. Following concentration, aliquots were re-pooled and frozen at −80 C after a sample was taken for determination of protein content and Western blot analysis. In brief, 20 ug of protein was loaded onto a 10% polyacrylamide mini-gel and run under denaturing conditions at 150 V for approximately 30 minutes. After dry electroblot transfer onto PVDF membranes (Hybond P, Amersham Pharmacia Biotech, Upsalla, Sweden) and pre-incubation for 30 minutes in a blocking buffer consisting of 3% bovine serum albumin in Tris-Buffered Saline with […] Triton-X 100 (TBST), blots were incubated with mouse anti-hemagglutinin (Babco) diluted 1:1000 in TBST overnight at 4 C. After washing, blots were incubated with alkaline phosphatase-coupled goat anti-mouse IgG (Santa Cruz) diluted 1:1000 in TBST for 1 hour at room temperature. Blots were visualized using the Amersham ECF reagent and blue fluorescence quantitated using a Molecular Devices Storm 840 phosphoimager.\n(§4) B1A fibroblast lines were cotransfected with the mFz8CRD-IgG/pRK5 and the pIRES puro 2 (Clontech, BD Bioscience, Erembodegem, Belgium) plasmids, using Lipofectamine Plus reagent (Invitrogen, Lidingo, Sweden) according to the instruction of the manufacturer. Upon selection for puromycin resistance (1 μg/ml Sigma, Stockholm, Sweden), clones were isolated and expanded. A clone overexpressing Fz8CRD 700× (real time RT-PCR analysis) was identified. Harvesting and partial purification of Fz8CRD conditioned media were performed as described previously. In all the blocking experiments performed, the Fz8CRD and B1A control partial purified conditioned medias were used at a final concentration of 125-250 μg/ml. […]"}, "[5]": {"tested_on": "ventral mesencephalic Nurr1+ neuronal precursors", "test": "Conversion of VM Nurr1+ precursors into Nurr1+/TH+ dopaminergic neurons (double immunostaining)", "settings": "VM cultures; control approximately 50%", "protocol": "as §1, §4\nOnly clearly stained cells were counted as positive cells. […]"}}}
{"substance": "Wnt-3a", "values": [{"measurement": "proportion of Nurr1 positive cortical cells that expressed TH", "setting": "[1]", "value": "virtually no Nurr1 positive cortical cells co-expressed TH"}, {"measurement": "increase in the number of clusters containing one or more TH+ neurons", "setting": "[2]", "value": "not"}, {"measurement": "increase in Nurr1 and BrdU double positive precursor cells (mitosis in Nurr1+ population)", "setting": "[3]; 1 day in vitro", "value": 3, "unit": "fold"}, {"measurement": "BrdU incorporation in VM precursor cultures", "setting": "[3]; 3 days in vitro", "value": "increased"}, {"measurement": "proportion of VM clusters containing dopaminergic neurons", "setting": "VM cultures; FIG. 3e", "value": "less than 10%"}, {"measurement": "total number of TuJ1+ neurons", "setting": "VM cultures; FIG. 3f", "value": "did not increase"}, {"measurement": "proportion of TH+ (dopaminergic) neurons", "setting": "VM cultures; FIG. 3g", "value": "decreased"}, {"measurement": "TH+ cell numbers", "setting": "[4]", "value": "no effect at doses up to 100 units"}, {"measurement": "proportion of Nurr1 positive cells that expressed TH (Nurr1+/TH+)", "setting": "[5]", "value": 30, "unit": "%"}]}
